According to article PMC2989343 (Bioorganic & medicinal chemistry, 2010):

Key:
[1] = biological target: human acetylcholinesterase (AChE, EC 3.1.1.7) (Homo sapiens, UniProt P22303); test: Inhibition of freshly prepared human erythrocyte AChE
cholinesterase = settings: cited from earlier work
[2] = Observation for acute cholinergically-mediated adverse effects in rat; settings: anesthetized rat, 10 mg/kg i.p.
[3] = biological target: human butyrylcholinesterase (BChE, EC 3.1.1.8) (Homo sapiens, UniProt P06276); test: Inhibition of freshly prepared human plasma BChE; type: biochemical; settings: from 60 to 18,000 nM
Chain of human butyrylcholinesterase (BChE, EC 3.1.1.8) (P06276 29-602): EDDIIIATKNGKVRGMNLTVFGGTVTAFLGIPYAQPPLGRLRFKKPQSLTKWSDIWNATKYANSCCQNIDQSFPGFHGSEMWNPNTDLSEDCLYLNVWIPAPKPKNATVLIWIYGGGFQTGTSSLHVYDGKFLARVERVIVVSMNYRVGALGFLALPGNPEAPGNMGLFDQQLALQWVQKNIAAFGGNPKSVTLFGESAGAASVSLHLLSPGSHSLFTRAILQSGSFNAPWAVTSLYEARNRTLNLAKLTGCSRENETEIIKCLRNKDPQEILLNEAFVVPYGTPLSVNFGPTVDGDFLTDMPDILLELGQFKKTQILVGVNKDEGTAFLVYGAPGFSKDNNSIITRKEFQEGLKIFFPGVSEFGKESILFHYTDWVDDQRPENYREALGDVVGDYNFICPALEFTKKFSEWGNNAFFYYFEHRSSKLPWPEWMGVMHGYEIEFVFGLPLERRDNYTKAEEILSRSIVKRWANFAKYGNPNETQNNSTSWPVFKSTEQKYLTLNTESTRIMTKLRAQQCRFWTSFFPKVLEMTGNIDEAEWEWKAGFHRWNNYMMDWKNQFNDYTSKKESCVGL

Chain of human acetylcholinesterase (AChE, EC 3.1.1.7) (P22303 32-617 isoform P22303-2 limits assumed): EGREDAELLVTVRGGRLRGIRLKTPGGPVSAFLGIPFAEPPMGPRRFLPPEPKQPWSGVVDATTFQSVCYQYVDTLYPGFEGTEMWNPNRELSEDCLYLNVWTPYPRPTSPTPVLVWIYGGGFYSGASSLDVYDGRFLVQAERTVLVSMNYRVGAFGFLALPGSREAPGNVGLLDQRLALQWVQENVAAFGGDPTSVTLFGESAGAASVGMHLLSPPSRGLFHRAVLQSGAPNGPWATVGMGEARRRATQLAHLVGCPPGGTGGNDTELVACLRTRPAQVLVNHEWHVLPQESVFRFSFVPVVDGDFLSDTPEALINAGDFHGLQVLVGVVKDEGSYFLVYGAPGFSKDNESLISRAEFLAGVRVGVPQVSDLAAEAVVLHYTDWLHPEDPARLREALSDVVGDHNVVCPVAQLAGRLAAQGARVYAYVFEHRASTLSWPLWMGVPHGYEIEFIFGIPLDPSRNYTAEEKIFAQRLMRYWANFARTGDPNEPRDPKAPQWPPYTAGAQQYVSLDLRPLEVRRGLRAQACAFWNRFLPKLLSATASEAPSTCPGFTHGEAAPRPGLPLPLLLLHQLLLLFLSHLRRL

C[n+]1cccc(OC(=O)Nc2ccccc2)c1.[Br-] [Compound 8, N-Phenylcarbamate of 3-hydroxy-1-methylpyridinium bromide]
AChE inhibitory activity (in words) ([1]; human AChE, versus pyridostigmine (4)): entire loss of AChE activity

CNC(=O)Oc1ccc2c(c1)[C@]1(C)CCN(C)[C@@H]1N2C [Compound 9, (−)-Physostigmine]
human pharmacodynamic half-life (T1/2) (cholinesterase): 30 min

CC(C)c1ccc(NC(=O)Oc2ccc3c(c2)[C@]2(C)CC[N+](C)(C)C2N3C)cc1.[Br-] (stereo partly drawn) [Compound 16, N(1)-Methylammonium bromide of (−)-cymserine]
central (tremor) or peripheral (lacrimation and salivation) cholinergically-mediated adverse effects [2]: No central (tremor) or peripheral (lacrimation and salivation) cholinergically-mediated adverse effects were evident

O=C(Nc1ccccc1)Oc1cccnc1 [Compound 7, N-Phenylcarbamate of 3-hydroxypyridine]
Selectivity A/B or B/A ([1]; given in words only, no ratio): None

COS(=O)(=O)[O-].C[N+](C)(C)c1cccc(OC(=O)Nc2ccccc2)c1 [Compound 6, N-Phenylcarbamate of 3-phenol-1-trimethylammonium methylsulfate]
fold decline of BChE IC50 value relative to neostigmine (3) [3]: 300 fold
